Article PMC8745263 (International Journal of Molecular Sciences, 2021)

Test: RP-HPLC mobility of peptide before and after H2O2 oxidation (hydrophilicity)
Assay type: physicochemical
Settings: RP-HPLC/LC-MS, C18 column, H2O/CH3CN with TFA; before and after 3% H2O2 oxidation; Supplementary Figure S1A,B
Procedure: GDF11[48-64]wt was converted to the variant with oxidized methionines by treatment with 3% H2O2, monitoring the reaction progression by reverse-phase HPLC chromatography (RP-HPLC) and mass spectrometry, using the un-oxidized precursor as control. The occurrence of the peroxide oxidation rendered the peptide more hydrophilic than its unoxidized counterpart, as clearly indicated in Supplementary Figure S1A,B by the shift in the RP-HPLC mobility of GDF11[48-64]ox to shorter retention time (9.97 min) with respect to that of GDF11[48-64]wt (11.41 min).
All protected amino acids, including 7-N-Fmoc-aminocoumarin-4-acetic acid (Fmoc-ACA-OH), Fmoc-Met(O)-OH, the coupling agents (1-[Bis(dimethylamino)methylene]-1H-1,2,3-triazol [4,5-b]pyridinium 3-oxid-hexafluorophosphate (Hexafluorophosphate Azabenzotriazole Tetramethyl Uronium, HATU), diisopropylcarbodiimide (DIC), ethyl cyanohydroxyiminoacetate (OXYMA)) and Fmoc-Rink Amide AM Resin used for peptide synthesis were purchased from IRIS Biotech GmbH (Marktrewitz, DE). Acetonitrile (CH3CN), dimethylformamide (DMF), trifluoroacetic acid (TFA), and methanol (CH3OH) were purchased from ROMIL (Dublin, Ireland). […]
Figure S1. Oxidation reaction of GDF11[48-64]wt with hydrogen peroxide monitored by LC-ESI-TOF-MS (LC-MS) analysis. […] After incubation, the samples were collected and analyzed by LC-MS. […]

Row | RP-HPLC retention time (shift to shorter time = more hydrophilic) [min] | Substance
1 | 9.97 | Ac-EYM(ox)FM(ox)QKYPHTHLVQQA-NH2 [GDF11[48-64] wt ox, GDF11[48-64]wt bearing sulphoxide groups on M50 and M52, by 3% H2O2 treatment]
2 | 11.41 | Ac-EYMFMQKYPHTHLVQQA-NH2 [GDF11[48-64]wt, peptide reproducing the 48–64 region of GDF11 protein, acetylated and amidated]
